Measurements taken from patent US10308662B2, “Thienopyranones as kinase and epigenetic inhibitors” (SignalRx Pharmaceuticals, Inc., priority 2014, dated 2019).
One block for each compound: values may come before it.

Key:
BRD4-1 = BRD4-1 (Homo sapiens (Human), UniProt O60885); conditions: cited from earlier work
[1] = test system: pAKT serine 473 in PC3 cells; assay: Cellular PI3K inhibition, pAKT ELISA in PC3 cells; format: cell-based; conditions: Homo sapiens, PC-3; IGF-1 stimulated PC3 cells
Experimental: Biological testing of compounds of Formula I. Representative compounds of the invention were tested for cellular PI3K inhibitory activity (as measured by the most robust marker of pathway activity pAKT) in a prostate cancer cell line (PC3), which is summarized in Table 3. […] Two million cells from the prostate cancer line PC3 were placed into 6 cm culture dishes and allowed to grow in complete RPMI 1640 media (Invitrogen, Carlsbad, Calif., Cat.#22400-105) with 10% fetal bovine serum (Invitrogen, Carlsbad, Calif., Cat.#10438-026). After this time period the cells were serum starved for 5 hours followed by application of the test compound. Test compound was added as a DMSO (dimethyl sulfoxide) solution such that the final DMSO concentration in the cell media was less than or equal to 0.2% by volume. After 30 minutes of exposure the growth factor stimulant, human IGF-1 (PeproTech, Inc., Rocky Hill, N.J., Cat.#100-11), was added in each well. After 30 minutes of IGF-1 exposure, cells were removed from the media and cell lysates were prepared using RIPA Lysis buffer (Upstate, Lake Placid, N.Y., Cat.#20-188), keeping on ice. The pAKT serine 473 level was measured in duplicate samples of the cell lysates using commercially available assays such as the Pathscan® Sandwich ELISA kit for Ser473 pAKT (Cell Signaling, Danvers, Mass., Cat.#7160). A SpectraMax Plus spectrophotometric plate reader (Molecular Devices, Sunnydale, Calif.) was used to measure the optical density signal for pAKT at 450 nm (OD450 nm). The pAKT OD450 nm readings were normalized by total protein amount in the cell lysates determined by standard methods.

PI3K = PI3K inhibition (isoform not given); format: biochemical
Description: (§1) Inhibitory activity can be determined routinely using known methods and also from commercial vendors offering this service for kinases and bromodomain proteins. […] In vivo, PI3K inhibition can be determined from target tissue biopsies by standard tissue processing to disrupt cells and then performing Western Blot analysis to determine the presence or absence of pAKT (substrate of PI3K) relative to a control sample. The activity of a compound of the invention as an inhibitor of a bromodomain-containing protein, such as a BET protein, such as BRD2, BRD3, BRD4, and/or BRDT, or an isoform or mutant thereof, may be determined in vitro, in vivo, or in a cell line. In vitro assays include assays that determine inhibition of bromodomain-containing proteins. Alternatively, inhibitor binding may be determined by running a competition experiment where a provided compound is incubated with a bromodomain-containing protein, such as a BET protein bound to known ligands, labeled or unlabeled. For example, bromodomain inhibition can be determined in vitro using Alpha Screen Technology (http://www.reactionbiology.com/webapps/site/NewsPDFs/Bromodomain%20Assay%20Platform%20for%20Drug%20Screening%20and%20Discovery.pdf). […]

N-MYC = assay: Western blot of N-MYC in SKNBE(2) cells; format: cell-based, human; conditions: 24 hrs treatment, 50 ng/ml IGF stimulation
Experimental: (§2) Cells were stimulated with 50 ng/ml IGF for 30 min and used for lysate preparation. Proteins were quantitated by the BCA protein assay (Pierce). Equal amounts of protein were resolved by polyacrylamide gels, transferred to nitrocellulose membrane and probed by Western blot with the following primary antibodies: p-AKT(Ser473), AKT (Cell Signaling Technologies), N-MYC, CyclinD1 and β-actin (Santa Cruz Biotechnology).

MYCN promoter region = assay: Brd4 chromatin precipitation with quantitative PCR of MYCN promoter in SKNBE(2) cells; format: cell-based, human; conditions: 24 hours exposure
Experimental: MYCN amplified SKNBE(2) cells were exposed to inhibitors for 24 hours then chromatin was precipitated with Brd4 (rabbit polyclonal antibody) along with rabbit IgG as a negative control (IgG). Precipitated chromatin was analyzed for the MYCN gene (2 sites within the MYCN promoter region) by quantitative PCR and enrichment is shown as the percentage of total input DNA (FIG. 4). The negative control region primers amplify within a gene desert region approximately 1 Mb away from MYCN (MYC-N NR). Error bars represent±SEM of triplicate data. P<0.05 as compared to positive control (paired t-test).

PI-3 kinases = conditions: cited from earlier work
BET bromodomains = conditions: cited from earlier work
PI3Kα = PI3Kα (Homo sapiens (Human), UniProt P42336); assay: PI3K alpha isoform inhibition; format: biochemical; conditions: 300 nM
Chain of PI3Kα (P42336 whole entry, canonical isoform): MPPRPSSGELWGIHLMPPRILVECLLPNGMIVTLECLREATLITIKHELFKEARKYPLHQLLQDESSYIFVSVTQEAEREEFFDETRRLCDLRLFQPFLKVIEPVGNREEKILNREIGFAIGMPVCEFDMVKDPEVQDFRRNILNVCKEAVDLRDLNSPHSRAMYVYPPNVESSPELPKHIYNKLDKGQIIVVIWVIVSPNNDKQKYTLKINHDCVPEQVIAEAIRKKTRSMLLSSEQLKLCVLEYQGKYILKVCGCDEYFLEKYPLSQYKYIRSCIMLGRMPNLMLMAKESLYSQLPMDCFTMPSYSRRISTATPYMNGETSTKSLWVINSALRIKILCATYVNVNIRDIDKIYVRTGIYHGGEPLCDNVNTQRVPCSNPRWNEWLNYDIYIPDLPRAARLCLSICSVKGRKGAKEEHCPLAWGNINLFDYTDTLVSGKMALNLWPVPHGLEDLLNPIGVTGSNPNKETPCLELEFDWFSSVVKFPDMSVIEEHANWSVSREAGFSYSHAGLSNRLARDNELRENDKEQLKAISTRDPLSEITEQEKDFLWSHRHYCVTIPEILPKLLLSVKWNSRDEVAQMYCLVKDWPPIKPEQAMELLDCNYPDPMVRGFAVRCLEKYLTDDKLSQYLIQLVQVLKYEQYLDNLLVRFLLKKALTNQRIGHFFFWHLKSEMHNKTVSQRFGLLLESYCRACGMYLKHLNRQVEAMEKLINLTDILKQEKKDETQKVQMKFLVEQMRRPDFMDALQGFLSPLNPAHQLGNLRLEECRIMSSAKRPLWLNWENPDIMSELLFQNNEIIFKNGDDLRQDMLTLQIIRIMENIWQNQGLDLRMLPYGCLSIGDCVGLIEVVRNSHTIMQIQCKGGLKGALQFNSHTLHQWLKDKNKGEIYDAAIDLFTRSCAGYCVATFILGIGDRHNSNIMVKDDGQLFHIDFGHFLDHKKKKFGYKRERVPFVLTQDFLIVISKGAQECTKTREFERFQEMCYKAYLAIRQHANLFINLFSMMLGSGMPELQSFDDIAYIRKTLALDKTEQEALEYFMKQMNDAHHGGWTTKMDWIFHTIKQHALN
Chain of PI3Kα (P27986 whole entry partner, canonical isoform): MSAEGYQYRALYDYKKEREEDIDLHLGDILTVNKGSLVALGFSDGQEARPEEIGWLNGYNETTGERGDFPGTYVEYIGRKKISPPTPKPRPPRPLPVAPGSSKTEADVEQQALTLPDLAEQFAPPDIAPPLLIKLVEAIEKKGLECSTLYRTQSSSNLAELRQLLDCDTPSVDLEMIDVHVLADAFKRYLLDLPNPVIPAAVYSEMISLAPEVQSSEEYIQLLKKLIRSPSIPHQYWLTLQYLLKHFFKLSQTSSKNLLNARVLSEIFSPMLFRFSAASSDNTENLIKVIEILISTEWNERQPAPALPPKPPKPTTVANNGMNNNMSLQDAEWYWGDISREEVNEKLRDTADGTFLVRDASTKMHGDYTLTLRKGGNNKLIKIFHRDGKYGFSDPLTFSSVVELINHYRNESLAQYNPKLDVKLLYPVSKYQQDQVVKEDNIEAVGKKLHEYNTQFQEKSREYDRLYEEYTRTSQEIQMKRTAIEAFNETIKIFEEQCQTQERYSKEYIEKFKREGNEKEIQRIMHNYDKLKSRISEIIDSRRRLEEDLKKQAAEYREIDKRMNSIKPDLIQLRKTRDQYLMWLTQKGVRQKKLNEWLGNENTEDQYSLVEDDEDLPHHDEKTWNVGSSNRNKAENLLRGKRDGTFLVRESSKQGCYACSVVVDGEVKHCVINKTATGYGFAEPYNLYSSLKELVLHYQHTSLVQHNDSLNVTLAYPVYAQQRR

PI3Kδ = PI3Kδ (Homo sapiens (Human), UniProt O00329); assay: PI3K delta isoform inhibition; format: biochemical; conditions: 300 nM
Chain of PI3Kδ (O00329 whole entry, canonical isoform): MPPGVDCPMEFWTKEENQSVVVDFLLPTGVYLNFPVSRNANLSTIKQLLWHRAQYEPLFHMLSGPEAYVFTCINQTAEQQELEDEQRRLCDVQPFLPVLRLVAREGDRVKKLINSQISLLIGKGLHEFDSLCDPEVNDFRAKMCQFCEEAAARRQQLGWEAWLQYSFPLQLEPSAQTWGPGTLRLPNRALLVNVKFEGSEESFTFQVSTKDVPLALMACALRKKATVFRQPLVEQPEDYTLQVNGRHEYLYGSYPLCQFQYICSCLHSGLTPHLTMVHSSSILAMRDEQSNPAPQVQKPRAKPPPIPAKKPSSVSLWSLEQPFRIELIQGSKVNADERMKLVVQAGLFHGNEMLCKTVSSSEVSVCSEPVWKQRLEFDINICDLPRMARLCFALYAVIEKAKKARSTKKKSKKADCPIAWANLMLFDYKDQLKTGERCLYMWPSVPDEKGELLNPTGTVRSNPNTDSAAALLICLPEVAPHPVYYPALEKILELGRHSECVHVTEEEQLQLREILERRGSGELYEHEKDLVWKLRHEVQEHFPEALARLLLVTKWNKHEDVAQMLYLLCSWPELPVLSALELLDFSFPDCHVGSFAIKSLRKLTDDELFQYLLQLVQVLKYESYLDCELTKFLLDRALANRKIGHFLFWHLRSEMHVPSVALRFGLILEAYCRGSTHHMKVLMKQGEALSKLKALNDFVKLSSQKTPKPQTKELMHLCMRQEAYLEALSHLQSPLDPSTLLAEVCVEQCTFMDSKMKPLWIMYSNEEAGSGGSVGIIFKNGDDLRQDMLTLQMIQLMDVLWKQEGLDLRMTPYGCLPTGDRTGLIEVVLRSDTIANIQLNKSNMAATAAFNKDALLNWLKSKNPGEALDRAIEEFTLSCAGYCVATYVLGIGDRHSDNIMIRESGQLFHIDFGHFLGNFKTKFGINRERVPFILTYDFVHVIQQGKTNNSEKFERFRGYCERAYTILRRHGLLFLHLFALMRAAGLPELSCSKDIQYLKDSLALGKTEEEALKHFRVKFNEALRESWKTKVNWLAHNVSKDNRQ
Chain of PI3Kδ (P27986 whole entry partner, canonical isoform): as the sequence (P27986 whole entry partner, canonical isoform) above
Description: as §1

PI3Kγ = PI3Kγ (Homo sapiens (Human), UniProt P48736); assay: PI3K gamma isoform inhibition; format: biochemical; conditions: 300 nM
Chain of PI3Kγ (P48736 whole entry, canonical isoform): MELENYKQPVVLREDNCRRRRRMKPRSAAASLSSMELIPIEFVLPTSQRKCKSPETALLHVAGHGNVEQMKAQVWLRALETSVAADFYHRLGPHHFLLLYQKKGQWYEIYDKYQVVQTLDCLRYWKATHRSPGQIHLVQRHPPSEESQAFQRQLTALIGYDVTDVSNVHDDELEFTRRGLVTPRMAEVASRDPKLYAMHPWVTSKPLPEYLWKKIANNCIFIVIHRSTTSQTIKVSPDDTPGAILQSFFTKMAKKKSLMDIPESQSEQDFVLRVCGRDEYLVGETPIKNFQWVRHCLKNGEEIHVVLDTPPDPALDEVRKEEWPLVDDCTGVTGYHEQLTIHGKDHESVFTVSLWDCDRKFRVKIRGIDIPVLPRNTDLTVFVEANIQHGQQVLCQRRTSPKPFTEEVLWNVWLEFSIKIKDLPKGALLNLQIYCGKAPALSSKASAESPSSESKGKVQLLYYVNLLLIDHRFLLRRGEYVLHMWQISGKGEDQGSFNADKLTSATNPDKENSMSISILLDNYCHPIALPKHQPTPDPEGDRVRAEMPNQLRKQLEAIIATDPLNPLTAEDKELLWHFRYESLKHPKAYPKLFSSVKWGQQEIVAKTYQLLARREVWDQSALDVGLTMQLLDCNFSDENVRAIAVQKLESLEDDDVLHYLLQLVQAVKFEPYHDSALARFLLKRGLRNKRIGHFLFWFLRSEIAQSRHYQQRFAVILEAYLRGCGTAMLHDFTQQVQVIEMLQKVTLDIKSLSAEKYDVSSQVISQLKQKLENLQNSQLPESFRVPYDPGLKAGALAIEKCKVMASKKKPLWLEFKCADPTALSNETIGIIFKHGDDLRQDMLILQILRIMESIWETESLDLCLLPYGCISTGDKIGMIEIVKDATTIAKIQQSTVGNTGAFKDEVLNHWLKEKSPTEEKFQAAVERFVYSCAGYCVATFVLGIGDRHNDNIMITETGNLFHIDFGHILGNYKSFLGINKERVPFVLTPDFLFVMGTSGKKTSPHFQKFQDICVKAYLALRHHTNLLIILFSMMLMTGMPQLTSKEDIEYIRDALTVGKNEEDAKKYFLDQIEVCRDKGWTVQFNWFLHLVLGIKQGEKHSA

HDAC = HDAC inhibitory activity, commercial kit; format: biochemical; conditions: for HDAC inhibitory activity: 1, 10, 50 μM
BRD4 = BRD4 (Homo sapiens, UniProt O60885); assay: BRD4 inhibition assay (region not specified); format: binding
p-AKT(Ser473) = assay: Western blot of pAKT in SKNBE(2) cells; format: cell-based, human; conditions: 24 hrs treatment, 50 ng/ml IGF stimulation
Experimental: as §2

breast cancer stem cells = conditions: women with breast tumors with high HER2; decreased from 11%; cited from earlier work

Structure (SMILES): CC(C)n1nc(-c2cc3cc(O)ccc3[nH]2)c2c(N)ncnc21 [PP-242]
BRD4-1 inhibition (BRD4-1): some degree of BRD4-1 inhibitory activity

IC50 [1]: 7300 nM
Structure (SMILES): N#Cc1ccc(-c2csc3c(=O)cc(N4CCOCC4)oc23)cc1 [Cmpd 5]

Structure (SMILES): CN(c1ccccc1CNc1nc(Nc2ccc3c(c2)CC(=O)N3)ncc1C(F)(F)F)S(C)(=O)=O [PF-431396]
BRD4-1 inhibition (BRD4-1): some degree of BRD4-1 inhibitory activity

IC50 [1]: 930 nM
Structure (SMILES): O=c1cc(N2CCOCC2)oc2c(-c3ccco3)csc12 [Cmpd 4]

IC50 [1]: 1410 nM
Structure (SMILES): O=c1cc(N2CCOCC2)oc2c(-c3ccc(Cl)cc3)csc12 [Cmpd 17]

IC50 [1]: 780 nM
Structure (SMILES): CN(C)c1ccc(-c2csc3c(=O)cc(N4CCOCC4)oc23)cc1 [Cmpd 9]

Structure (SMILES): Cc1cnc(Nc2ccc(N3CCN(C)CC3)cc2)nc1Nc1cccc(S(=O)(=O)NC(C)(C)C)c1 [TG101209]
BRD4-1 inhibition (BRD4-1): potently inhibit

IC50 [1]: 864 nM
Structure (SMILES): O=c1cc(N2CCOCC2)oc2c(Cc3ccccc3)csc12 [Cmpd 1]

Structure (SMILES): Cc1sc2c(c1C)C(c1ccc(Cl)cc1)=N[C@@H](CC(=O)OC(C)(C)C)c1nnc(C)n1-2 [JQ-1]
PI3K inhibition (PI3K): does not inhibit PI3K
MYCN quantity by Western blot (N-MYC): inhibited only MYCN quantities
MYCN expression (Brd4-precipitated chromatin, MYCN promoter PCR) (MYCN promoter region): significantly repressed MYCN expression

Structure (SMILES): O=c1cc(N2CCNCC2)oc2c(-c3ccccc3)cccc12 [LY303511]
MYCN quantity by Western blot (N-MYC): inhibited only MYCN quantities
MYCN expression (Brd4-precipitated chromatin, MYCN promoter PCR) (MYCN promoter region): significantly repressed MYCN expression
PI3K inhibition activity (PI-3 kinases): lose PI3K inhibition activity
BET bromodomain inhibition (BET bromodomains): retain BET bromodomain inhibition

IC50 [1]: 3030 nM
Structure (SMILES): O=c1cc(N2CCOCC2)oc2c(-c3ccncc3)csc12 [Cmpd 2]

inhibition at 0.3 µM (PI3Kα): 76%
inhibition at 0.3 µM (PI3Kδ): 80%
inhibition at 0.3 µM (PI3Kγ): 30%
Structure (SMILES): O=C(NO)c1ccc(-c2csc3c(=O)cc(N4CCOCC4)oc23)cc1 [Cmpd 118]
HDAC activity inhibition versus control (HDAC; 1 μM): 17%
HDAC activity inhibition versus control (HDAC; 10 μM): 25%
HDAC activity inhibition versus control (HDAC; 50 μM): 41%
HDAC inhibitory activity (HDAC): significant HDAC inhibitory activity

inhibition at 0.3 µM (PI3Kα): 53%
inhibition at 0.3 µM (PI3Kδ): 81%
inhibition at 0.3 µM (PI3Kγ): 26%
Structure (SMILES): COC(=O)c1ccc(-c2csc3c(=O)cc(N4CCOCC4)oc23)cc1 [Cmpd 44, Methyl 4-(5-morpholino-7-oxo-7H-thieno[3,2-b]pyran-3-yl)benzoate]
BRD4 inhibition (BRD4): showed activity against BRD4 regions 1 and 2
HDAC inhibitory activity (HDAC): No inhibitor activity

IC50 [1]: 1270 nM
Structure (SMILES): O=c1cc(N2CCOCC2)oc2c(C#Cc3ccsc3)csc12 [Cmpd 23]

IC50 [1]: 609 nM
Structure (SMILES): CN1CCOc2cc(-c3csc4c(=O)cc(N5CCOCC5)oc34)ccc21 [Cmpd 22]

Structure (SMILES): O=c1cc(N2CCOCC2)oc2c(-c3ccccc3)cccc12 [LY294002, 2-(4-morpholinyl)-8-phenyl-4H-1-benzopyran-4-one]
pAKT level by Western blot (p-AKT(Ser473)): decreased MYCN and pAKT
MYCN quantity by Western blot (N-MYC): decreased MYCN
MYCN expression (Brd4-precipitated chromatin, MYCN promoter PCR) (MYCN promoter region): significantly repressed MYCN expression
BET bromodomain inhibition (BET bromodomains): modestly inhibit

IC50 [1]: 1230 nM
Structure (SMILES): Cc1cccc(-c2csc3c(=O)cc(N4CCOCC4)oc23)c1 [Cmpd 16]

Structure (SMILES): Cc1c(Cn2c(C)nc3c(C(=O)O)cc(N4CCOCC4)cc32)cccc1C(F)(F)F [GSK2636771]
BRD4-1 inhibition (BRD4-1): some degree of BRD4-1 inhibitory activity

BRD4 inhibition (BRD4): no BRD4 inhibition
Structure (SMILES): Nc1cc(C(F)(F)F)c(-c2cc(N3CCOCC3)nc(N3CCOCC3)n2)cn1 [BKM120, reference compound]
pAKT level by Western blot (p-AKT(Ser473)): decreased pAKT

IC50 [1]: 1560 nM
Structure (SMILES): O=c1cc(N2CCOCC2)oc2c(-c3ccsc3)csc12 [Cmpd 26]

IC50 [1]: 1020 nM
Structure (SMILES): O=c1cc(N2CCOCC2)oc2c(-c3cccs3)csc12 [Cmpd 14]

IC50 [1]: 550 nM
Structure (SMILES): O=c1cc(N2CCOCC2)oc2c(-c3ccccc3)csc12 [Cmpd 6]

IC50 [1]: 4870 nM
Structure (SMILES): O=c1cc(N2CCOCC2)oc2c(-c3cccnc3)csc12 [Cmpd 3]

IC50 [1]: 4610 nM
Structure (SMILES): O=c1cc(N2CCOCC2)oc2c(C#CCO)csc12 [Cmpd 24]

IC50 [1]: 901 nM
Structure (SMILES): O=c1cc(N2CCOCC2)oc2c(-c3ccc4[nH]ccc4c3)csc12 [Cmpd 19]

IC50 [1]: 913 nM
Structure (SMILES): O=c1cc(N2CCOCC2)oc2c(-c3ccc(Cl)c(Cl)c3)csc12 [Cmpd 18]

IC50 [1]: 6320 nM
Structure (SMILES): Nc1cccc(-c2csc3c(=O)cc(N4CCOCC4)oc23)c1 [Cmpd 11, 3-(3-Amino-phenyl)-5-morpholin-4-yl-thieno[3,2-b]pyran-7-one]

IC50 [1]: 1040 nM
Structure (SMILES): COC(=O)c1scc(-c2csc3c(=O)cc(N4CCOCC4)oc23)c1O [Cmpd 21]

IC50 [1]: 3240 nM
Structure (SMILES): O=c1cc(N2CCOCC2)oc2c(-c3ccoc3)csc12 [Cmpd 27]

IC50 [1]: 980 nM
Structure (SMILES): COc1ccc(-c2csc3c(=O)cc(N4CCOCC4)oc23)cc1 [Cmpd 8]

Structure (SMILES): Cc1cnc(Nc2ccc(OCCN3CCCC3)cc2)nc1Nc1cccc(S(=O)(=O)NC(C)(C)C)c1 [TG-101348]
BRD4-1 inhibition (BRD4-1): some degree of BRD4-1 inhibitory activity

IC50 [1]: 948 nM
Structure (SMILES): Cc1ccc(-c2csc3c(=O)cc(N4CCOCC4)oc23)cc1 [Cmpd 15]

Structure (SMILES): Cn1c(=O)n(-c2ccc(C(C)(C)C#N)cc2)c2c3cc(-c4cnc5ccccc5c4)ccc3ncc21 [BEZ235]
pAKT level by Western blot (p-AKT(Ser473)): decreased pAKT

IC50 [1]: 540 nM
Structure (SMILES): O=c1cc(N2CCOCC2)oc2c(-c3ccc4c(c3)OCO4)csc12 [Cmpd 7]

BRD4 inhibition (BRD4): no BRD4 inhibition
Structure (SMILES): CC[C@H](Nc1ncnc2[nH]cnc12)c1nc2cccc(F)c2c(=O)n1-c1ccccc1 [CAL101]
pAKT level by Western blot (p-AKT(Ser473)): decreased pAKT
MYCN expression (Brd4-precipitated chromatin, MYCN promoter PCR) (MYCN promoter region): did not

Structure (SMILES): CS(=O)(=O)CCNCc1ccc(-c2ccc3ncnc(Nc4ccc(OCc5cccc(F)c5)c(Cl)c4)c3c2)o1 [Lapatinib]
breast cancer stem cells in biopsies after treatment (breast cancer stem cells): 5 % of cells

IC50 [1]: 1570 nM
Structure (SMILES): O=c1cc(N2CCOCC2)oc2c(-c3cc4ccccc4[nH]3)csc12 [Cmpd 12]

IC50 [1]: 1070 nM
Structure (SMILES): COc1cccc(-c2csc3c(=O)cc(N4CCOCC4)oc23)c1 [Cmpd 29]
